Source: a flash point compilation (Sun et al. 2020)

Row | flash point | SMILES
1 | 21 °C | COC1CCCCC1 [cyclohexylmethylether]
2 | 22 °C | CC(C)CCOC=O [isopentylformate]
3 | 55 °C | CCc1ccccc1CC [o-diethylbenzene]
4 | 46 °C | CCCC(C)[N+](=O)[O-] (centres undefined) [2-nitropentane]
5 | 82 °C | CCCCCCCCC#N [nonanenitrile]
6 | 82 °C | CCCC(=O)OC(=O)CCC [butanoicanhydride]
7 | -32 °C | CC(C)Cl [2-chloropropane]
8 | 42 °C | C[C@@H]1CC(=O)[C@@H](C)C1 (relative stereo) [trans-2,4-dimethylcyclopentanone]
9 | 54 °C | C=CCCCCCCCCC [1-undecene]
10 | -21 °C | C1CCOC1 [tetrahydrofuran]
11 | 18 °C | C=CCCCCC(C)C [7-methyl-1-octene]
12 | 4 °C | CC(C)(C)C#N [2,2-dimethylpropanenitrile]
13 | 69 °C | COC1CCCCC1=O (centres undefined) [2-methoxycyclohexanone]
14 | 107 °C | CCCCOC(=O)c1ccccc1 [butylbenzoate]
15 | 113 °C | CC(=O)OCCCc1ccccc1 [3-phenylpropylacetate]
16 | 32 °C | CN(C)CCCN [N,N-dimethyl-1,3-propanediamine]
17 | 30 °C | CCCOC(=O)C(C)C [propyl2-methylpropanoate]
18 | 48 °C | CC1CCC(=O)CC1 [4-methylcyclohexanone]
19 | -20 °C | CC(C)=C(C)C [2,3-dimethyl-2-butene]
20 | 57 °C | CCC(CC)CO [2-ethyl-1-butanol]
21 | 41 °C | C=C(C)C(=O)OCC(C)C [isobutylmethacrylate]
22 | 127 °C | CCCCCCCCCCCCO [1-dodecanol]
23 | -32 °C | CC(C)N [isopropylamine]
24 | 107 °C | CCCCNc1ccccc1 [N-butylaniline]
25 | -5 °C | C=CCOCCC [allylpropylether]
26 | 10 °C | O=C1CCC1 [cyclobutanone]

Row | flash point | SMILES
27 | 3 °C | CCC(CC)C(C)C [3-ethyl-2-methylpentane]
28 | -4 °C | CCOC(C)=O [ethylacetate]
29 | -18 °C | C=CC(C)CCC (centres undefined) [3-methyl-1-hexene]
30 | 7 °C | CCC(Cl)Cl [1,1-dichloropropane]
31 | 102 °C | OCCc1ccccc1 [2-phenylethanol]
32 | 52 °C | CCCc1cccc(C)c1 [m-propyltoluene]
33 | 88 °C | CC(C)(C)Nc1ccccc1 [N-tert-butylaniline]
34 | 10 °C | C=C(C)CCCCC [2-methyl-1-heptene]
35 | 34 °C | CCCC(C)O (centres undefined) [2-pentanol]
36 | -22 °C | C=COCCC [propylvinylether]
37 | 100 °C | CCCCCCCCCCOC=O [decylformate]
38 | 97 °C | CCCc1ccccc1N [2-propylaniline]
39 | -32 °C | CCCC(C)C [2-methylpentane]
40 | 31 °C | CCC(C)C(C)(C)C(C)C (centres undefined) [2,3,3,4-tetramethylhexane]
41 | -5 °C | CCCCOCC [butylethylether]
42 | 15 °C | CCC(C)C(C)(C)CC (centres undefined) [3,3,4-trimethylhexane]
43 | 14 °C | CC/C=C\CCCC [cis-3-octene]
44 | 35 °C | Cc1cc(C)cc(F)c1 [1-fluoro-3,5-dimethylbenzene]
45 | 9 °C | C#CCCCC#C [1,6-heptadiyne]
46 | -20 °C | C=CCOCC [allylethylether]
47 | -15 °C | CCC(C)C(C)C (centres undefined) [2,3-dimethylpentane]
48 | 78 °C | Cc1ccccc1Br [2-bromotoluene]
49 | -6 °C | CC=C(CC)CC [3-ethyl-2-pentene]
50 | -10 °C | C=CCCC(C)C [5-methyl-1-hexene]
51 | 93 °C | OCc1ccccc1 [benzylalcohol]
52 | 55 °C | CCCCCCOC(C)=O [hexylacetate]

Row | flash point | SMILES
53 | -18 °C | C=CC=C(C)C [4-methyl-1,3-pentadiene]
54 | 51 °C | CC(C)CCCO [4-methyl-1-pentanol]
55 | -9 °C | CC(C)(C)OC=O [tert-butylformate]
56 | 79 °C | C#CCCCCCCCCCC [1-dodecyne]
57 | 130 °C | CCCCCCC(=O)OC(=O)CCCCCC [heptanoicanhydride]
58 | 46 °C | CC(C)CCOCCC(C)C [diisopentylether]
59 | 92 °C | CCCCCCCC(=O)CCC [4-undecanone]
60 | 59 °C | CCCCCC(C)O (centres undefined) [2-heptanol]
61 | 41 °C | CCCCCCCCl [1-chloroheptane]
62 | -19 °C | CC(C)C=O [2-methylpropanal]
63 | -12 °C | CC(C)CC(C)C [2,4-dimethylpentane]
64 | 25 °C | SC1CCCC1 [cyclopentanethiol]
65 | 31 °C | CCCCCCC(C)(C)C [2,2-dimethyloctane]
66 | 48 °C | CC1CCCC(=O)C1 (centres undefined) [3-methylcyclohexanone]
67 | 75 °C | CC(C)N(C=O)C(C)C [N,N-diisopropylformamide]
68 | 12 °C | CCOC(=O)CC [ethylpropanoate]
69 | 35 °C | C=C(C)C(=O)OCCC [propylmethacrylate]
70 | 8 °C | C[C@H]1CCC[C@H](C)C1 (relative stereo) [trans-1,3-dimethylcyclohexane]
71 | 64 °C | CCC(C)Cc1ccccc1 (centres undefined) [1-phenyl-2-methylbutane]
72 | 31 °C | CCC(C)(C)C(C)C(C)C (centres undefined) [2,3,4,4-tetramethylhexane]
73 | 47 °C | CCCCNCCCC [dibutylamine]
74 | 75 °C | C=CC1(C)CCC(=O)O1 (centres undefined) [4-methyl-4-vinylbutyrolactone]
75 | 67 °C | CC(C)(C)SSC(C)(C)C [di-tert-butyldisulfide]
76 | -51 °C | CCC(C)C [2-methylbutane]
77 | 102 °C | CC(=O)OCCc1ccccc1 [2-phenylethylacetate]
78 | 25 °C | C=CCOC(=O)CC [allylpropanoate]

Row | flash point | SMILES
79 | 88 °C | CCCCCC(=O)CCCCC [6-undecanone]
80 | 78 °C | CC(C)=CCCC(C)CC=O (centres undefined) [3,7-dimethyl-6-octenal]
81 | -26 °C | Cc1ccco1 [2-methylfuran]
82 | 62 °C | CC(C)CCc1ccccc1 [isopentylbenzene]
83 | 16 °C | CC(C)(C)CCC(C)(C)C [2,2,5,5-tetramethylhexane]
84 | 5 °C | CCCC(CC)CC [3-ethylhexane]
85 | 16 °C | CCC(=O)C(C)C [2-methyl-3-pentanone]
86 | 14 °C | CC(C)C1CCCC1 [isopropylcyclopentane]
87 | 97 °C | CC(C)CCC(=O)O [4-methylpentanoicacid]
88 | 35 °C | CCOC(OCC)OCC [triethoxymethane]
89 | 22 °C | CCCOC(=O)CC [propylpropanoate]
90 | -4 °C | C[C@@H]1CCC[C@@H]1C [cis-1,2-dimethylcyclopentane]
91 | -10 °C | C=CCCCC=C [1,6-heptadiene]
92 | 31 °C | C1COCCN1 [morpholine]
93 | 74 °C | CC(C)CC(=O)O [3-methylbutanoicacid]
94 | 21 °C | C=CC1CCCCC1 [vinylcyclohexane]
95 | 107 °C | CCCC(=O)OCc1ccccc1 [benzylbutanoate]
96 | 97 °C | CCc1ccc(N)cc1 [4-ethylaniline]
97 | -17 °C | CC(C)CCl [1-chloro-2-methylpropane]
98 | 103 °C | CCCC(C)CC(=O)O (centres undefined) [3-methylhexanoicacid]
99 | 8 °C | CCC/C=C/CCC [trans-4-octene]
100 | 90 °C | O=C1CCCC1C1CCCC1 (centres undefined) [2-cyclopentylcyclopentanone]
101 | 47 °C | Cc1ccccc1Cl [2-chlorotoluene]
102 | 95 °C | CCCCCCCCI [1-iodooctane]
103 | 66 °C | CCCSSCCC [dipropyldisulfide]
104 | 91 °C | CCCCCCCCCOC(C)=O [nonylacetate]

Row | SMILES | flash point
105 | c1ccc2c(c1)CCCC2 [1,2,3,4-tetrahydronaphthalene] | 71 °C
106 | CCCCCCCC#N [octanenitrile] | 74 °C
107 | CC(O)CCO (centres undefined) [1,3-butanediol] | 109 °C
108 | CCCCC#N [pentanenitrile] | 32 °C
109 | C=CCO [allylalcohol] | 22 °C
110 | N#CC1CC1 [cyclopropanecarbonitrile] | 32 °C
111 | N#CCCCCC#N [1,4-dicyanobutane] | 159 °C
112 | ICc1ccccc1 [benzyliodide] | 97 °C
113 | CSCCl [chloromethylmethylsulfide] | 17 °C
114 | C#CCO [2-propyn-1-ol] | 36 °C
115 | CN(CCO)CCO [N-methyldiethanolamine] | 137 °C
116 | CCCCCC#N [hexanenitrile] | 47 °C
117 | OCCCCO [1,4-butanediol] | 121 °C
118 | CCCCCCC#N [heptanenitrile] | 58 °C
119 | C=CC=O [acrolein] | -19 °C
120 | COC(=O)c1ccccc1C(=O)OC [dimethylphthalate] | 150 °C
121 | Cc1cccc(N)c1 [3-methylaniline] | 86 °C
122 | CCOC(=O)c1ccccc1C(=O)OCC [diethylphthalate] | 160 °C
123 | CC(C)NC(C)C [diisopropylamine] | -7 °C
124 | OCCOCCO [diethyleneglycol] | 124 °C
